Measured values taken from ChEMBL document CHEMBL3779859, “Synergistic activity of a short lipidated antimicrobial peptide (lipoAMP) and colistin or tobramycin against Pseudomonas aeruginosa from cystic fibrosis patients” (Medchemcomm, 2016).
≈ marks a conversion by molar mass, not a printed value. Calls of active or inactive are those of the source. The rule behind the calls is not given here. Peptide text beside a SMILES is read from it. * marks the point of attachment. Myristoyl = CCCCCCCCCCCCCC(=O)*; Lauroyl = CCCCCCCCCCCC(=O)*; Octanoyl = CCCCCCCC(=O)*

Experiments:
Pseudomonas aeruginosa [1] = test: Antibacterial activity against Pseudomonas aeruginosa VW1633 clinical isolate after 16 to 20 hrs by microdilution assay; format: functional
Pseudomonas aeruginosa [2] = test: Antibacterial activity against Pseudomonas aeruginosa KD491 clinical isolate after 16 to 20 hrs by microdilution assay; format: functional
Pseudomonas aeruginosa [3] = test: Antibacterial activity against Pseudomonas aeruginosa LES431 clinical isolate after 16 to 20 hrs by microdilution assay; format: functional
Pseudomonas aeruginosa [4] = test: Antibacterial activity against Pseudomonas aeruginosa VW313 clinical isolate after 16 to 20 hrs by microdilution assay; format: functional
Pseudomonas aeruginosa [5] = test: Antibacterial activity against Pseudomonas aeruginosa VW1538 clinical isolate after 16 to 20 hrs by microdilution assay; format: functional
Pseudomonas aeruginosa [6] = test: Antibacterial activity against Pseudomonas aeruginosa VW0247 clinical isolate after 16 to 20 hrs by microdilution assay; format: functional
Pseudomonas aeruginosa [7] = test: Antibacterial activity against Pseudomonas aeruginosa VW1501 clinical isolate after 16 to 20 hrs by microdilution assay; format: functional
Pseudomonas aeruginosa [8] = test: Antibacterial activity against Pseudomonas aeruginosa LES400 clinical isolate after 16 to 20 hrs by microdilution assay; format: functional
Pseudomonas aeruginosa [9] = test: Antibacterial activity against Pseudomonas aeruginosa VW1540 clinical isolate after 16 to 20 hrs by microdilution assay; format: functional
Pseudomonas aeruginosa [10] = test: Antibacterial activity against Pseudomonas aeruginosa VW1485 clinical isolate after 16 to 20 hrs by microdilution assay; format: functional
Pseudomonas aeruginosa [11] = test: Antibacterial activity against Pseudomonas aeruginosa D599 clinical isolate after 16 to 20 hrs by microdilution assay; format: functional
Pseudomonas aeruginosa [12] = test: Antibacterial activity against Pseudomonas aeruginosa VW178 clinical isolate after 16 to 20 hrs by microdilution assay; format: functional
Pseudomonas aeruginosa [13] = test: Antibacterial activity against Pseudomonas aeruginosa Clone C clinical isolate after 16 to 20 hrs by microdilution assay; format: functional
Pseudomonas aeruginosa [14] = test: Antibacterial activity against Pseudomonas aeruginosa VW1471 clinical isolate after 16 to 20 hrs by microdilution assay; format: functional
Pseudomonas aeruginosa [15] = test: Antibacterial activity against Pseudomonas aeruginosa kl 3.2 clinical isolate after 16 to 20 hrs by microdilution assay; format: functional
Pseudomonas aeruginosa [16] = test: Antibacterial activity against Pseudomonas aeruginosa PAO1 clinical isolate after 16 to 20 hrs by microdilution assay; format: functional
Pseudomonas aeruginosa [17] = test: Antibacterial activity against Pseudomonas aeruginosa kl 1.1 clinical isolate after 16 to 20 hrs by microdilution assay; format: functional
Pseudomonas aeruginosa [18] = test: Antibacterial activity against Pseudomonas aeruginosa KD557 clinical isolate after 16 to 20 hrs by microdilution assay; format: functional
Pseudomonas aeruginosa [19] = test: Antibacterial activity against Pseudomonas aeruginosa MIDLANDS clinical isolate after 16 to 20 hrs by microdilution assay; format: functional
Pseudomonas aeruginosa [20] = test: Antibacterial activity against Pseudomonas aeruginosa LESB58 clinical isolate after 16 to 20 hrs by microdilution assay; format: functional
Pseudomonas aeruginosa [21] = test: Antibacterial activity against Pseudomonas aeruginosa KD491 clinical isolate assessed as delay in growth rate in exponential phase of bacterial growth curve at 1 ug/ml measured every 15 mins by microtiter plate reader method; format: functional, organism-based
Pseudomonas aeruginosa [22] = test: Antibacterial activity against Pseudomonas aeruginosa PAO1 clinical isolate assessed as delay in growth rate in exponential phase of bacterial growth curve at 0.25 ug/ml measured every 15 mins by microtiter plate reader method; format: functional, organism-based
Pseudomonas aeruginosa [23] = test: Antibacterial activity against Pseudomonas aeruginosa Clone C clinical isolate assessed as delay in growth rate in exponential phase of bacterial growth curve at 0.25 ug/ml measured every 15 mins by microtiter plate reader method; format: functional, organism-based
Pseudomonas aeruginosa [24] = test: Antibacterial activity against Pseudomonas aeruginosa LESB58 clinical isolate assessed as delay in growth rate in exponential phase of bacterial growth curve at 1 ug/ml measured every 15 mins by microtiter plate reader method; format: functional, organism-based
Pseudomonas aeruginosa [25] = test: Antibacterial activity against Pseudomonas aeruginosa KD491 clinical isolate assessed as growth rate in exponential phase at 0.25 ug/ml measured every 15 mins by microtiter plate reader method; format: functional, organism-based
Pseudomonas aeruginosa [26] = test: Antibacterial activity against Pseudomonas aeruginosa LESB58 clinical isolate assessed as prolongation of lag phase in bacterial growth curve at 2 ug/ml measured every 15 mins by microtiter plate reader method; format: functional, organism-based
Pseudomonas aeruginosa [27] = test: Antibacterial activity against Pseudomonas aeruginosa Clone C clinical isolate assessed as inhibition of biofilm formation at 2 ug/ml after 18 to 22 hrs by crystal violet staining-based polystyrene microtiter plate reader method; format: functional, organism-based
Pseudomonas aeruginosa [28] = test: Antibacterial activity against Pseudomonas aeruginosa LESB58 clinical isolate assessed as growth rate in exponential phase at 2 ug/ml measured every 15 mins by microtiter plate reader method; format: functional, organism-based
Pseudomonas aeruginosa [29] = test: Antibacterial activity against Pseudomonas aeruginosa PAO1 clinical isolate assessed as inhibition of biofilm formation at 2 ug/ml after 18 to 22 hrs by crystal violet staining-based polystyrene microtiter plate reader method; format: functional, organism-based
Pseudomonas aeruginosa [30] = test: Antibacterial activity against Pseudomonas aeruginosa KD491 clinical isolate assessed as prolongation time of lag phase in bacterial growth curve at 0.25 ug/ml measured every 15 mins by microtiter plate reader method; format: functional, organism-based

Compound	MIC (Pseudomonas aeruginosa [1]) [µg/mL]	MIC (Pseudomonas aeruginosa [2]) [µg/mL]	MIC (Pseudomonas aeruginosa [3]) [µg/mL]	MIC (Pseudomonas aeruginosa [4]) [µg/mL]	MIC (Pseudomonas aeruginosa [5]) [µg/mL]	MIC (Pseudomonas aeruginosa [6]) [µg/mL]	MIC (Pseudomonas aeruginosa [7]) [µg/mL]	MIC (Pseudomonas aeruginosa [8]) [µg/mL]	MIC (Pseudomonas aeruginosa [9]) [µg/mL]	MIC (Pseudomonas aeruginosa [10]) [µg/mL]	MIC (Pseudomonas aeruginosa [11]) [µg/mL]	MIC (Pseudomonas aeruginosa [12]) [µg/mL]	MIC (Pseudomonas aeruginosa [13]) [µg/mL]	MIC (Pseudomonas aeruginosa [14]) [µg/mL]	MIC (Pseudomonas aeruginosa [15]) [µg/mL]	MIC (Pseudomonas aeruginosa [16]) [µg/mL]	MIC (Pseudomonas aeruginosa [17]) [µg/mL]	MIC (Pseudomonas aeruginosa [18]) [µg/mL]	MIC (Pseudomonas aeruginosa [19]) [µg/mL]	MIC (Pseudomonas aeruginosa [20]) [µg/mL]	other results
CCCCCCCCCCCC(=O)N[C@@H](CCCNC(=N)N)C(=O)N[C@@H](Cc1c[nH]c2ccccc12)C(=O)N[C@@H](CCCNC(=N)N)C(=O)N[C@@H](Cc1c[nH]c2ccccc12)C(=O)N[C@@H](CCCNC(=N)N)C(=O)N[C@@H](Cc1c[nH]c2ccccc12)C(=O)N[C@@H](CCCCN)C(=O)O (Lauroyl-RWRWRWK-OH)	> 128	> 128	64 (≈ 47.2 µM)	–	–	–	–	–	–	–	–	–	–	–	–	–	–	–	–	–	–
CCCCCCCCCCCCCC(=O)N[C@@H](CCCNC(=N)N)C(=O)N[C@@H](Cc1c[nH]c2ccccc12)C(=O)N[C@@H](CCCNC(=N)N)C(=O)N[C@@H](Cc1c[nH]c2ccccc12)C(=O)N[C@@H](CCCNC(=N)N)C(=O)N[C@@H](Cc1c[nH]c2ccccc12)C(=O)N[C@@H](CCCCN)C(=O)O (Myristoyl-RWRWRWK-OH)	> 128	> 128	> 128	–	–	–	–	–	–	–	–	–	–	–	–	–	–	–	–	–	–
CCCCCCCC(=O)N[C@@H](CCCNC(=N)N)C(=O)N[C@@H](Cc1c[nH]c2ccccc12)C(=O)N[C@@H](CCCNC(=N)N)C(=O)N[C@@H](Cc1c[nH]c2ccccc12)C(=O)N[C@@H](CCCNC(=N)N)C(=O)N[C@@H](Cc1c[nH]c2ccccc12)C(=O)N[C@@H](CCCCN)C(=O)O (Octanoyl-RWRWRWK-OH)	32 (≈ 24.6 µM)	16 (≈ 12.3 µM)	64 (≈ 49.2 µM)	–	–	–	–	–	–	–	–	–	–	–	–	–	–	–	–	–	–
CC(C)(O/N=C(\C(=O)N[C@@H]1C(=O)N2C(C(=O)[O-])=C(C[n+]3ccccc3)CS[C@H]12)c1csc(N)n1)C(=O)O [CEFTAZIDIME]	> 256	> 256	256 (≈ 468 µM)	> 256	8 (≈ 14.6 µM)	16 (≈ 29.3 µM)	4 (≈ 7.32 µM)	32 (≈ 58.5 µM)	16 (≈ 29.3 µM)	8 (≈ 14.6 µM)	1 (≈ 1.83 µM)	2 (≈ 3.66 µM)	2 (≈ 3.66 µM)	128 (≈ 234 µM)	2 (≈ 3.66 µM)	1 (≈ 1.83 µM)	2 (≈ 3.66 µM)	2 (≈ 3.66 µM)	64 (≈ 117 µM)	256 (≈ 468 µM)	–
C[C@@H](O)[C@H]1C(=O)N2C(C(=O)O)=C(S[C@@H]3CN[C@H](C(=O)N(C)C)C3)[C@H](C)[C@H]12 [MEROPENEM]	1 (≈ 2.61 µM)	16 (≈ 41.7 µM)	8 (≈ 20.9 µM)	16 (≈ 41.7 µM)	–	0.25 (≈ 0.652 µM)	0.25 (≈ 0.652 µM)	2 (≈ 5.22 µM)	1 (≈ 2.61 µM)	0.25 (≈ 0.652 µM)	0.5 (≈ 1.3 µM)	2 (≈ 5.22 µM)	2 (≈ 5.22 µM)	32 (≈ 83.4 µM)	4 (≈ 10.4 µM)	2 (≈ 5.22 µM)	4 (≈ 10.4 µM)	1 (≈ 2.61 µM)	16 (≈ 41.7 µM)	2 (≈ 5.22 µM)	–
NC[C@H]1O[C@H](O[C@H]2[C@H](O)[C@@H](O[C@H]3O[C@H](CO)[C@@H](O)[C@H](N)[C@H]3O)[C@H](N)C[C@@H]2N)[C@H](N)C[C@@H]1O [TOBRAMYCIN]	0.125 (≈ 0.267 µM)	8 (≈ 17.1 µM)	2 (≈ 4.28 µM)	16 (≈ 34.2 µM)	8 (≈ 17.1 µM)	4 (≈ 8.56 µM)	4 (≈ 8.56 µM)	8 (≈ 17.1 µM)	0.125 (≈ 0.267 µM)	16 (≈ 34.2 µM)	0.5 (≈ 1.07 µM)	32 (≈ 68.4 µM)	1 (≈ 2.14 µM)	8 (≈ 17.1 µM)	16 (≈ 34.2 µM)	2 (≈ 4.28 µM)	4 (≈ 8.56 µM)	1 (≈ 2.14 µM)	2 (≈ 4.28 µM)	8 (≈ 17.1 µM)	Activity (Pseudomonas aeruginosa [21]): Active; Activity (Pseudomonas aeruginosa [22]): Active; Activity (Pseudomonas aeruginosa [23]): Active; Activity (Pseudomonas aeruginosa [24]): Active
COLISTIN	2	2	2	4	2	2	2	4	4	> 128	4	4	4	4	8	4	4	8	4	32	Activity (Pseudomonas aeruginosa [25]): inactive; Activity (Pseudomonas aeruginosa [26]): Active; inhibition (Pseudomonas aeruginosa [27]): < 20%; Activity (Pseudomonas aeruginosa [28]): inactive; inhibition (Pseudomonas aeruginosa [29]): < 20%; TIME (Pseudomonas aeruginosa [30]): 4 h
